The molecules below were run against T1, Avi-tagged FL MALT-1 (Homo sapiens, UniProt Q9UDY8) (assay: MALT-1 Fluorogenic Peptide Cleavage Assay (MALT1 inhibition assay)). Conditions: Ac-LRSR-AMC peptide substrate; 30 min pre-incubation, 90 min reaction at room temperature; fluorescence.
T1 construct: Avi-tagged FL MALT-1 (Pharmaron, stored at −70° C.); Avi-tag; purchased Pharmaron
T1 sequence (Q9UDY8 1-824): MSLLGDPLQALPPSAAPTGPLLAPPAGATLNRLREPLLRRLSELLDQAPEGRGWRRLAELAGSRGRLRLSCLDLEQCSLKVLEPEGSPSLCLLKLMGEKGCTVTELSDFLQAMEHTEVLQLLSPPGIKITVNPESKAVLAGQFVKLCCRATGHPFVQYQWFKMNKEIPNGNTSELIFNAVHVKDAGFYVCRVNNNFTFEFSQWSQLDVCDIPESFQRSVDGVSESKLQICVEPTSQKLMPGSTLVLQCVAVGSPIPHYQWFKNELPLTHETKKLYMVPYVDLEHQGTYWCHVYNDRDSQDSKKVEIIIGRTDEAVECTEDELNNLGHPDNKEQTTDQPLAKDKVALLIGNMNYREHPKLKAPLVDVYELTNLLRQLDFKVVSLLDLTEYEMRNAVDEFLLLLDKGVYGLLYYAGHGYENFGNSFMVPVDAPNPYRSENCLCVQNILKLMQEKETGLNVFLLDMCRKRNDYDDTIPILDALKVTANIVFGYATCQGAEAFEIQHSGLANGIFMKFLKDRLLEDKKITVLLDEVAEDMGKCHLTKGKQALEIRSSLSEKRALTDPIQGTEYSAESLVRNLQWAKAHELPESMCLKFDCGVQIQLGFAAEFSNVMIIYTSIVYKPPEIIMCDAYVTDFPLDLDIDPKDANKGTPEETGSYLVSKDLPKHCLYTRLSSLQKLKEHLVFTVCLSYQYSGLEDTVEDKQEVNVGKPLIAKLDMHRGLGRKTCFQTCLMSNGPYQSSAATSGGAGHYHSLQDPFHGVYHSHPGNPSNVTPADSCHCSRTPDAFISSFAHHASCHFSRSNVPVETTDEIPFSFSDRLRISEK
Assay type: biochemical
In short: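 Full-length Avi-tagged enzyme preincubated 30 min at room temperature with compound (2% DMSO final) in HEPES pH 6.89 buffer with sodium citrate, TCEP, EDTA and CHAPS. Ac-LRSR-AMC substrate added at Km or 10×Km (working stocks 50 or […] μM); fluorescence (ex 342/em 441 nm) after 90 min; IC50 from sigmoidal fit.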
For `O=C(Nc1ccnc(C(F)(F)F)c1)c1snc(-c2cccc3[nH]ncc23)c1C1CC1` [I-182, 4-cyclopropyl-3-(1H-indazol-4-yl)-N-(2-(trifluoromethyl)pyridin-4-yl)isothiazole-5-carboxamide], the IC50 was ≤ 0.4 µM.
`Cc1c(-c2nsc(C(=O)Nc3ccnc(C(F)(F)F)c3)c2C2CC2)cnn1C` [I-183, 4-cyclopropyl-3-(1,5-dimethyl-1H-pyrazol-4-yl)-N-(2-(trifluoromethyl)pyridin-4-yl)isothiazole-5-carboxamide] was tested, and the IC50 was ≤ 0.4 µM.
For `O=C(Nc1ccnc(C(F)(F)F)c1)c1snc(-c2ccncc2)c1C1CC1` [I-184, 4-cyclopropyl-3-(pyridin-4-yl)-N-(2-(trifluoromethyl)pyridin-4-yl)isothiazole-5-carboxamide], the IC50 was ≤ 0.4 µM.
`O=C(Nc1ccnc(C(F)(F)F)c1)c1snc(-c2ccn3ccnc3c2)c1C1CC1` [I-185, 4-cyclopropyl-3-(imidazo[1,2-a]pyridin-7-yl)-N-(2-(trifluoromethyl)pyridin-4-yl)isothiazole-5-carboxamide] was tested, and the IC50 was 1 to 2.5 µM.
In the case of `O=C(Nc1ccnc(C(F)(F)F)c1)c1snc(-c2ccc3nccn3c2)c1C1CC1` [I-186, 4-cyclopropyl-3-{imidazo[1,2-a]pyridin-6-yl}-N-[2-(trifluoromethyl)pyridin-4-yl]-1,2-thiazole-5-carboxamide], the IC50 is reported as ≤ 0.4 µM.
For `O=C(Nc1ccnc(C(F)(F)F)c1)c1snc(-c2c(Cl)cncc2Cl)c1C1CC1` [I-187, 4-cyclopropyl-3-(3,5-dichloropyridin-4-yl)-N-(2-(trifluoromethyl)pyridin-4-yl)isothiazole-5-carboxamide], the IC50 was ≤ 0.4 µM.
For `N#Cc1cc(NC(=O)c2snc(-c3cccc4c(=O)[nH]ccc34)c2C2CC2)cnc1-n1nccn1` [I-188, N-(5-cyano-6-(2H-1,2,3-triazol-2-yl)pyridin-3-yl)-4-cyclopropyl-3-(1-oxo-1,2-dihydroisoquinolin-5-yl)isothiazole-5-carboxamide], the IC50 was ≤ 0.4 µM.
With `O=C(Nc1ccnc(C(F)(F)F)c1)c1snc(-c2cccc3c(=O)[nH]ccc23)c1C1CC1` [I-189, 4-cyclopropyl-3-(1-oxo-1,2-dihydroisoquinolin-5-yl)-N-(2-(trifluoromethyl)pyridin-4-yl)isothiazole-5-carboxamide] the IC50 was ≤ 0.4 µM.
`O=C(Nc1ccc(C(=O)N2CC(O)C2)c(Cl)c1)c1snc(-c2cccc3nccn23)c1C1CC1` [I-190, N-(3-chloro-4-(3-hydroxyazetidine-1-carbonyl)phenyl)-4-cyclopropyl-3-(imidazo[1,2-a]pyridin-5-yl)isothiazole-5-carboxamide] was tested, and the IC50 was ≤ 0.4 µM.
For `Cc1cc(-c2nsc(C(=O)Nc3ccnc(C(F)(F)F)c3)c2C2CC2)ccn1` [I-191, 4-cyclopropyl-3-(2-methylpyridin-4-yl)-N-(2-(trifluoromethyl)pyridin-4-yl)isothiazole-5-carboxamide], the IC50 was ≤ 0.4 µM.
In the case of `O=C(Nc1ccnc(C(F)(F)F)c1)c1snc(-c2cnccc2F)c1C1CC1` [I-192, 4-cyclopropyl-3-(4-fluoropyridin-3-yl)-N-(2-(trifluoromethyl)pyridin-4-yl)isothiazole-5-carboxamide], the IC50 is reported as ≤ 0.4 µM.
`CNC(=O)c1cccc(-c2nsc(C(=O)Nc3ccnc(C(F)(F)F)c3)c2C2CC2)c1` [I-193, 4-cyclopropyl-3-(3-(methylcarbamoyl)phenyl)-N-(2-(trifluoromethyl)pyridin-4-yl)isothiazole-5-carboxamide] gave an IC50 of 0.4 to 1 µM.
`O=C(Nc1ccnc(C(F)(F)F)c1)c1snc(-c2ccc3cncn3c2)c1C1CC1` [I-194, 4-cyclopropyl-3-(imidazo[1,5-a]pyridin-6-yl)-N-(2-(trifluoromethyl)pyridin-4-yl)isothiazole-5-carboxamide] was tested, and the IC50 was ≤ 0.4 µM.
`O=C(Nc1ccnc(C(F)(F)F)c1)c1snc(-c2cccc(F)c2)c1C1CC1` [I-195, 4-cyclopropyl-3-(3-fluorophenyl)-N-[2-(trifluoromethyl)pyridin-4-yl]-1,2-thiazole-5-carboxamide] was tested, and the IC50 was ≤ 0.4 µM.
In the case of `Cc1cc(NC(=O)c2snc(-c3ccccc3)c2C2CC2)ccn1` [I-196, 4-cyclopropyl-N-(2-methylpyridin-4-yl)-3-phenylisothiazole-5-carboxamide], the IC50 is reported as ≤ 0.4 µM.

Source: patent US20260124222A1, “ISOTHIAZOLYLCARBOXAMIDE COMPOUNDS AND THEIR USE IN THERAPY” (HOTSPOT THERAPEUTICS, INC., priority 2022, published 2026)
